Source: patent publication US8796176B2, “Pesticidal composition comprising an alpha-alkoxyphenyl acetic acid derivative and a neonicotinoid compound” (Sumitomo Chemical Company, Ltd, priority 2008, dated 2014)

Tested on: Rhizoctonia solani
Test: Cucumber seed treatment test against Rhizoctonia solani (Test Example 4)
Type: in vivo
Conditions: cucumber seeds, seventh day after dissemination
Description: 5: Diameter of maculation: >20 mm Incidence of disease=Σ(Evaluation index of leaves checked)×100/(Number of total leaves checked) “Equation 1” Control value=100(A−B)/A “Equation 2” A: Incidence of disease of plant in untreated area B: Incidence of disease of plant in treated area Generally, the control value expected for the case where the given two kinds of active ingredient compounds are mixed and used for the treatment, the so-called control value expectation is calculated from the following Colby's calculating equation. […] They were allowed to grow in a greenhouse while irrigated and the number of non-budding seeds was checked on the seventh day after the dissemination and the incidence of disease was calculated by Equation 4. The control value was calculated by Equation 2 based on the incidence of disease. […]

Row | Structure (SMILES) | Actual control value (compound (1b) alone 10 g/Seed 100 kg) | Actual control value (clothianidin alone 200 g/Seed 100 kg)
1 | CNC(=O)C(OC)c1ccccc1COc1cc(C)ccc1C (racemic) [(1b)] | 35% | 
2 | CN/C(=N\[N+](=O)[O-])NCc1cnc(Cl)s1 [Clothianidin, clothianidin] |  | 4%
